Experimental data reported in patent publication US20220030868A1, “FUNGICIDAL HALOMETHYL KETONES AND HYDRATES” (FMC CORPORATION, priority 2018, published 2022).

Legend:
[1] = system: Puccinia recondita f. sp. tritici; assay: Test B: test suspension sprayed on wheat seedlings one day before inoculation with Puccinia recondita f. sp. tritici spores (wheat leaf rust), disease rating; type: in vivo; conditions: 100 = 100% disease control, 0 = no control
Summary of the method: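 Wheat seedlings were sprayed to run-off with compound suspended in 50/50 acetone/water containing 250 ppm PEG400, then inoculated with P. recondita f. sp. tritici spores the next day. Plants were held 24 h in saturated air at 20 °C, then 6 days in a growth chamber at 20 °C. Disease control was rated 0–100% relative to controls, with some entries run at 50 or 10 ppm.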

Phakopsora pachyrhizi = assay: Test A: test suspension sprayed on soybean seedlings one day before inoculation with Phakopsora pachyrhizi spores (Asian soybean rust), visual disease rating; type: in vivo; conditions: 100 = 100% disease control, 0 = no control
Summary of the method: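 Compound dissolved in acetone (3% of final volume), then suspended at the stated ppm in 50/50 acetone/water with 250 ppm PEG400 surfactant; sprayed to run-off on soybean seedlings, inoculated with P. pachyrhizi spores next day. Held saturated at 22° C for 24 h, then 8 days at 22° C; visual rating as % disease control versus controls.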

Row | SMILES | Test B rating (disease control) ([1]; 10 ppm test suspension) | Test A rating (disease control) (Phakopsora pachyrhizi; 10 ppm test suspension) | further results
1 | CCOC(=O)c1cnn(Cc2ccc(OCC3(C(F)(F)F)NCCO3)cc2)c1 (centres unmarked) [Compound 21] | 23% | 84% | –
2 | CN(C)C(=O)C1=NOC(c2ccc(OCC(O)(O)C(F)(F)F)cc2)C1 (centres unmarked) [Compound 41] | 23% | 92% | –
3 | CCOC(=O)Cc1nnn(Cc2ccc(O/C=C(\OCC)C(F)(F)F)cc2)n1 [compound 83] | 0% | 82% | –
4 | C[Si](C)(C)CCOc1nccc(Cc2ccc(OCC3(C(F)(F)F)OCCO3)cc2)n1 [compound 314] | – | – | Test B rating (disease control) ([1]; 50 ppm test suspension): 0%; Test A rating (disease control) (Phakopsora pachyrhizi; 50 ppm test suspension): 0%
5 | CCNC(=O)c1cnn(Cc2cccc(C/C=C(\OCC)C(F)(F)F)c2)c1 [compound 343] | 0% | 0% | –
6 | CCOC(=O)c1cnn(C(C)c2ccc(O/C=C(\OCC)C(F)(F)F)cc2)c1 (centres unmarked) [compound 267] | 0% | 94% | –
7 | CCOC(=O)c1cnn(C(C)c2ccc(OCC(O)(O)C(F)(F)F)cc2)c1 (centres unmarked) [Compound 35] | 32% | 99% | –
8 | CCO/C(=C\Oc1ccc(Cn2ncnc2C#N)cc1)C(F)(F)F [Compound 81] | 0% | 0% | –
9 | CON(Cc1ccc(OCC2(C(F)(F)F)OCCO2)cc1)C(=O)C(C)C [compound 235] | 0% | 97% | –
10 | CCOC(=O)c1ccc2c(cnn2Cc2ccc(OCC3(C(F)(F)F)OCCO3)cc2)c1 [compound 160] | 0% | 13% | –
11 | O=C(NCC1CC1)c1csc(Cc2ccc(OCC(O)(O)C(F)(F)F)cc2)n1 [Compound 69] | 96% | 98% | –
12 | CCOC(=O)c1cnn(CCCc2ccc(O/C=C(\OCC)C(F)(F)F)cc2)c1 [compound 294] | 0% | 100% | –
13 | CCOC(=O)NCc1ccc(OCC2(C(F)(F)F)OCCO2)cc1 [compound 78] | 0% | 94% | –
14 | CCO/C(=C\Oc1ccc([N+](=O)[O-])cc1)C(F)(F)F [compound 279] | – | – | Test B rating (disease control) ([1]; 50 ppm test suspension): 0%; Test A rating (disease control) (Phakopsora pachyrhizi; 50 ppm test suspension): 0%
15 | C=CCOC(=O)c1ccn(Cc2ccc(O/C=C(\OCC)C(F)(F)F)cc2)n1 [compound 291] | 0% | 100% | –
16 | CCO/C(=C\Oc1ccc(Cn2ccc(C(=O)OCCOC)n2)cc1)C(F)(F)F [compound 360] | 0% | 100% | –
17 | CCO/C(=C\Oc1ccc(C(C)=O)cc1)C(F)(F)F [compound 79] | – | – | Test B rating (disease control) ([1]; 50 ppm test suspension): 0%; Test A rating (disease control) (Phakopsora pachyrhizi; 50 ppm test suspension): 0%
18 | CCO/C(=C\Oc1ccc(Cn2cc(C(=O)NC(C)C)cn2)cc1)C(F)(F)F [compound 118] | 0% | 0% | –
19 | CCOC(=O)c1cc(OC)n(Cc2ccc(O/C=C(\OCC)C(F)(F)F)cc2)n1 [compound 90] | 0% | 100% | –
20 | CCCOC(=O)c1cnn(Cc2cccc(O/C=C(\OCC)C(F)(F)F)c2)c1 [Compound 331, propyl 1-[[3-[[(1Z)-2-ethoxy-3,3,3-trifluoro-1-propen-1-yl]oxy]phenyl]methyl]-1H-pyrazole-4-carboxylate] | – | – | pest or weed control at 10 ppm ([1]; 10 ppm test suspension): 0%; pest or weed control at 10 ppm (Phakopsora pachyrhizi; Phakopsora pachyrhizi, 10 ppm test suspension): 100%
21 | COC(=O)c1cnn(Cc2ccc(OCC3(C(F)(F)F)OCCO3)cc2)c1 [compound 13] | 0% | 99% | –
22 | CCOC(=O)C1=NOC(c2ccc(O/C=C(\OCC)C(F)(F)F)cc2)C1 (centres unmarked) [compound 278] | – | – | Test B rating (disease control) ([1]; 50 ppm test suspension): 0%; Test A rating (disease control) (Phakopsora pachyrhizi; 50 ppm test suspension): 94%
23 | CCO/C(=C\Oc1ccc(Cn2cc(C(=O)OCC(=O)c3ccccc3)cn2)cc1)C(F)(F)F [compound 244] | 0% | 100% | –
24 | O=C(OCC(F)(F)C(F)(F)F)c1cnn(Cc2ccc(OCC(O)(O)C(F)(F)F)cc2)c1 [Compound 46] | 85% | 64% | –
25 | CCO/C(=C\Oc1ccc(CN2CCC(C#N)CC2)cc1)C(F)(F)F [compound 311] | 0% | 0% | –
26 | N#CCc1ccc(OCC2(C(F)(F)F)OCCO2)cc1 [compound 239] | 0% | 0% | –
27 | CCCCCCOC(=O)c1cnn(Cc2ccc(OCC3(C(F)(F)F)OCCO3)cc2)c1 [compound 16] | 0% | 99% | –
28 | CCOC(=O)c1cnn(Cc2ccc(COCC3(C(F)(F)F)OCCO3)cc2)c1 [compound 141] | 0% | 0% | –
